Data published in ChEMBL document CHEMBL2163329, “Tuberculosis: the drug development pipeline at a glance” (Eur J Med Chem, 2012).
≈ marks a conversion by molar mass, not a printed value.

What was measured:
Type in all cases: functional
[1] = test system: Mycobacterium tuberculosis; experiment: Antimycobacterial activity against quinolone-resistant, multidrug-resistant Mycobacterium tuberculosis
[2] = test system: Mycobacterium tuberculosis; experiment: Antimycobacterial activity against drug-resistant Mycobacterium tuberculosis
[3] = test system: Mycobacterium tuberculosis; experiment: Antimycobacterial activity against INH-resistant Mycobacterium tuberculosis
[4] = test system: Mycobacterium tuberculosis; experiment: Antimycobacterial activity against EMB-resistant Mycobacterium tuberculosis
[5] = test system: Mycobacterium tuberculosis; experiment: Antimycobacterial activity against RIF-resistant Mycobacterium tuberculosis

SMILES: COc1c(N2CC3(CC3)[C@](C)(N)C2)c(F)cc2c(=O)c(C(=O)O)cn([C@@H]3C[C@@H]3F)c12
- MIC90 [1]: 0.5 µg/mL (≈ 1.19 µM)

SMILES: C[C@]1(COc2ccc(N3CCC(Oc4ccc(OC(F)(F)F)cc4)CC3)cc2)Cn2cc([N+](=O)[O-])nc2O1
- MIC [2]: 0.006 µg/mL (≈ 0.0112 µM)

SMILES: COc1nc2ccc(Br)cc2cc1[C@@H](c1ccccc1)[C@@](O)(CCN(C)C)c1cccc2ccccc12 [BEDAQUILINE]
- MIC [2]: 0.003 µg/mL (≈ 0.0054 µM)

SMILES: O=[N+]([O-])c1cn2c(n1)OC[C@@H](OCc1ccc(OC(F)(F)F)cc1)C2 [PRETOMANID]
- MIC [2]: 0.015 µg/mL (≈ 0.0418 µM)

SMILES: CC(C)=CCC/C(C)=C/CNCCNC1C2CC3CC(C2)CC1C3 (stereo not drawn) [SQ109]
- MIC [3]: 1.4 µM (≈ 0.463 µg/mL)
- MIC [4]: 0.9 µM (≈ 0.298 µg/mL)
- MIC [5]: 0.7 µM (≈ 0.231 µg/mL)

SMILES: CC(=O)NC[C@H]1CN(c2ccc(N3CCSCC3)c(F)c2)C(=O)O1 [SUTEZOLID]
- MIC [2]: 0.03 µg/mL (≈ 0.0849 µM)
